Results: ChEMBL document CHEMBL1201862, “PubChem BioAssay data set” (2004)
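48-hour exposure; five concentrations; linearly interpolated endpoints. GI50 = concentration required for 50% inhibition of growth.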 Activity calls are given as the source filed them. Rule as the data show it: active = GI50 up to about 1.1 µM and inactive = higher. Where a SMILES comes first, the peptide text is derived from it. The star is where a group is joined. Boc = CC(C)(C)OC(=O)*; Bn = c1ccc(C*)cc1

Key:
Assay in all cases: NCI-60 cell line screen, 48 h
[1] = test system: IGROV-1
[2] = test system: SNB-19
[3] = test system: OVCAR-5
[4] = test system: NCI/ADR-RES
[5] = test system: DU-145
[6] = test system: M14
[7] = test system: PC-3
[8] = test system: HT-29
[9] = test system: SR
[10] = test system: HL-60
[11] = test system: OVCAR-3
[12] = test system: SK-OV-3
[13] = test system: A549
[14] = test system: KM12
[15] = test system: OVCAR-4
[16] = test system: OVCAR-8
[17] = test system: NCI-H460
[18] = test system: HCT-116
[19] = test system: SK-MEL-2
[20] = test system: A498

Measured: GI50

COC(=O)C(CC(C)C)NC(=O)CNC(=O)C(Cc1ccc(OCc2ccccc2)cc1)NC(=O)C(COCc1ccccc1)NC(=O)OC(C)(C)C (centres undefined) (Boc-S(Bn)Y(Bn)GL-OMe; configuration not given here)
inactive: [1] > 100 µM | [2] > 100 µM | [3] > 100 µM | [4] > 100 µM | [5] > 100 µM | [6] > 100 µM | [7] > 100 µM | [8] > 100 µM | [9] > 100 µM | [10] 4.56 µM | [11] > 100 µM | [12] > 100 µM | [13] > 100 µM | [14] > 100 µM | [15] > 100 µM | [16] > 100 µM | [17] > 100 µM | [18] > 100 µM

CCOC(=O)CON=c1c2ccccc2ccc2ccccc12
inactive: [19] > 100 µM | [1] > 100 µM | [2] > 100 µM | [3] > 100 µM | [4] > 100 µM | [5] > 100 µM | [6] > 100 µM | [7] > 100 µM | [8] > 100 µM | [9] > 100 µM | [10] > 100 µM | [11] > 100 µM | [12] > 100 µM | [13] > 100 µM | [14] > 100 µM | [15] > 100 µM | [16] > 100 µM | [17] > 100 µM | [18] > 100 µM

C=CCOC(=O)NC1C(OC(C)[C@@H](NC(=O)OCc2ccccc2)C(=O)OC(C)(C)C)OC(COC(C)=O)C(OC(C)=O)C1OC(C)=O (some centres undefined)
inactive: [1] > 100 µM | [20] > 100 µM | [2] > 100 µM | [3] > 100 µM | [4] 50.6 µM | [5] > 100 µM | [6] 46.1 µM | [7] 47 µM | [8] > 100 µM | [9] 79.8 µM | [10] 69.5 µM | [11] > 100 µM | [12] > 100 µM | [13] > 100 µM | [14] > 100 µM | [15] > 100 µM | [16] 65 µM | [17] > 100 µM | [18] > 100 µM

O=C(Nn1c(-c2ccccc2)nc2ccccc2c1=O)c1ccc(Cl)cc1
inactive: [1] > 100 µM | [20] 45.7 µM | [2] > 100 µM | [3] > 100 µM | [4] > 100 µM | [5] > 100 µM | [6] > 100 µM | [7] 66.4 µM | [8] > 100 µM | [9] 85.5 µM | [10] > 100 µM | [11] 91.6 µM | [12] > 100 µM | [13] 67.9 µM | [14] > 100 µM | [15] 56.5 µM | [16] > 100 µM | [17] 59.6 µM | [18] > 100 µM

O=C1Cc2c([nH]c3c(Br)cccc23)-c2ccccc2N1
inactive: [19] > 100 µM | [1] > 100 µM | [20] > 100 µM | [2] 43.6 µM | [3] > 100 µM | [4] 40.3 µM | [5] > 100 µM | [6] 58.5 µM | [7] 49.8 µM | [8] 59.8 µM | [9] 19.1 µM | [10] 21.5 µM | [11] > 100 µM | [12] 37.2 µM | [13] > 100 µM | [14] 60 µM | [16] 48.2 µM | [17] 45.9 µM | [18] > 10 µM

COc1cc(C2SCC(=O)N2Cc2ccccc2)cc(OC)c1OC (centres undefined)
inactive: [19] > 100 µM | [1] 84.3 µM | [2] > 100 µM | [3] > 100 µM | [4] > 100 µM | [5] 22.1 µM | [6] > 100 µM | [7] > 100 µM | [8] > 100 µM | [9] > 100 µM | [10] > 100 µM | [11] > 100 µM | [12] > 100 µM | [13] > 100 µM | [14] > 100 µM | [15] > 100 µM | [16] > 100 µM | [17] > 100 µM | [18] > 100 µM

CCCCCc1c2nc(c(CCCCC)c3ccc([nH]3)c(CCCCC)c3nc(c(CCCCC)c4ccc1[nH]4)C=C3)C=C2
inactive: [19] > 100 µM | [1] > 100 µM | [2] > 100 µM | [3] > 100 µM | [4] > 100 µM | [5] > 100 µM | [6] > 100 µM | [7] > 100 µM | [8] > 100 µM | [9] > 100 µM | [10] > 100 µM | [11] > 100 µM | [12] > 100 µM | [13] > 100 µM | [14] > 100 µM | [15] > 100 µM | [16] > 100 µM | [17] > 100 µM | [18] > 100 µM

CC1=C[C@H](C[C@]2(C)c3c(c4c(C)cccc4oc3=O)O[C@@H]2C)OC1=O
inactive: [19] > 100 µM | [1] > 100 µM | [20] > 100 µM | [2] > 100 µM | [3] > 100 µM | [4] 20.1 µM | [5] > 100 µM | [6] 66.1 µM | [7] > 100 µM | [8] 35.6 µM | [9] 22.4 µM | [10] 22.5 µM | [11] 37 µM | [12] > 100 µM | [13] > 100 µM | [14] > 100 µM | [16] 68.1 µM | [17] > 100 µM | [18] 15.7 µM

S=C1CC(c2ccc(Cl)cc2)Sc2ccccc2N1 (centres undefined)
inactive: [1] 43.4 µM | [2] 27.8 µM | [3] > 100 µM | [4] 32.4 µM | [5] 51.4 µM | [6] 24.3 µM | [7] 24.2 µM | [8] > 100 µM | [9] 33.3 µM | [10] 30.5 µM | [11] 23.1 µM | [12] 22.5 µM | [13] 55.5 µM | [14] 45.7 µM | [15] 28.8 µM | [16] > 100 µM | [17] 60 µM | [18] 19.1 µM

Cc1ncc([N+](=O)[O-])n1CCNC(=O)CCCCn1ccnc1[N+](=O)[O-]
inactive: [19] > 100 µM | [1] > 100 µM | [20] > 100 µM | [2] > 100 µM | [3] > 100 µM | [4] > 100 µM | [5] > 10 µM | [6] > 100 µM | [7] > 100 µM | [8] > 100 µM | [9] > 100 µM | [10] > 100 µM | [11] > 100 µM | [12] > 100 µM | [13] > 100 µM | [14] > 100 µM | [16] > 100 µM | [17] > 100 µM | [18] > 100 µM

CCCc1nc2c(n1CC)C(=O)c1ccccc1C2=O
inactive: [1] 27 µM | [2] 86.9 µM | [3] > 100 µM | [4] 26.2 µM | [5] 74.5 µM | [6] 33.2 µM | [7] 34.2 µM | [8] 18.5 µM | [9] 42.3 µM | [10] 44.4 µM | [11] 32.5 µM | [12] 21.7 µM | [13] 46.5 µM | [14] 40.3 µM | [15] 32.1 µM | [17] 37.2 µM | [18] 39.3 µM

CC(=O)NC1=C(NCCCl)C(=O)c2ccccc2C1=O
inactive: [1] 39.8 µM | [2] 58.3 µM | [3] 81.8 µM | [4] 29.5 µM | [5] 30.5 µM | [6] 13 µM | [7] 22.3 µM | [8] 26.4 µM | [9] 30.8 µM | [10] > 10 µM | [11] 49.5 µM | [12] 59.2 µM | [13] 35.4 µM | [14] 31.8 µM | [15] 44.6 µM | [16] 20 µM | [17] 32.1 µM | [18] 20.5 µM

OCCOCn1cc(Cn2ncc3c(SCc4ccccc4)ncnc32)nn1
inactive: [19] 37.2 µM | [1] 53.2 µM | [20] 34.4 µM | [2] 85.7 µM | [3] 79.3 µM | [4] 31.8 µM | [5] 43.7 µM | [6] 27.3 µM | [7] 69 µM | [8] 38.2 µM | [10] 13.7 µM | [11] 44.8 µM | [12] 61.5 µM | [13] 40.3 µM | [14] 32.3 µM | [15] 59.3 µM | [16] 91.8 µM | [17] 38.3 µM | [18] 34.7 µM

CC12CCC(C1)C(C)(C)C2OC(=O)c1ccccc1N (centres undefined)
inactive: [19] 14.8 µM | [1] 25.8 µM | [20] 15.2 µM | [2] 17.2 µM | [3] 18.2 µM | [4] 16.6 µM | [5] 16.4 µM | [6] 16.6 µM | [7] 14.3 µM | [8] 14.9 µM | [9] 8.24 µM | [10] 12.9 µM | [11] 15.2 µM | [12] 16.7 µM | [13] 14.8 µM | [14] 16.3 µM | [16] 18.5 µM | [17] 15.7 µM | [18] 13.5 µM

COc1ccc2c(=O)cc(-c3ccc(OC)c(OC)c3OC)oc2c1
inactive: [1] > 83.4 µM | [2] > 60.4 µM | [3] > 69 µM | [4] 28.4 µM | [5] > 100 µM | [6] > 100 µM | [7] 60.4 µM | [8] 98.9 µM | [9] 74.8 µM | [10] 30.1 µM | [11] > 44.4 µM | [12] > 89.1 µM | [13] 4.81 µM | [14] > 43.7 µM | [15] > 93.3 µM | [16] > 100 µM | [17] 99.3 µM | [18] > 100 µM
